Like-named read-outs stand apart in the source and are kept apart here.
Key:
[1] = molecular target: T1, PI3Kβ (Homo sapiens, UniProt P42338); experiment: Enzyme binding assay (KINOMEscan, DiscoveRx); conditions: PIK3Cβ_h, read-out: Kd PIK3Cβ_h
T1 construct: purchased DiscoveRx Corporation, San Diego (contract service, KINOMEscan)
In short: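 Compounds are profiled for binding to the kinase using KINOMEscan. The affinity is then reported as an inhibitor Kd in nanomolar units.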

[2] = molecular target: T2, PI3Kδ (Homo sapiens, UniProt O00329); experiment: Enzyme binding assay (KINOMEscan, DiscoveRx); conditions: PIK3Cδ_h
T2 construct: purchased DiscoveRx Corporation, San Diego (contract service, KINOMEscan)
T2 sequence (O00329 1-1044): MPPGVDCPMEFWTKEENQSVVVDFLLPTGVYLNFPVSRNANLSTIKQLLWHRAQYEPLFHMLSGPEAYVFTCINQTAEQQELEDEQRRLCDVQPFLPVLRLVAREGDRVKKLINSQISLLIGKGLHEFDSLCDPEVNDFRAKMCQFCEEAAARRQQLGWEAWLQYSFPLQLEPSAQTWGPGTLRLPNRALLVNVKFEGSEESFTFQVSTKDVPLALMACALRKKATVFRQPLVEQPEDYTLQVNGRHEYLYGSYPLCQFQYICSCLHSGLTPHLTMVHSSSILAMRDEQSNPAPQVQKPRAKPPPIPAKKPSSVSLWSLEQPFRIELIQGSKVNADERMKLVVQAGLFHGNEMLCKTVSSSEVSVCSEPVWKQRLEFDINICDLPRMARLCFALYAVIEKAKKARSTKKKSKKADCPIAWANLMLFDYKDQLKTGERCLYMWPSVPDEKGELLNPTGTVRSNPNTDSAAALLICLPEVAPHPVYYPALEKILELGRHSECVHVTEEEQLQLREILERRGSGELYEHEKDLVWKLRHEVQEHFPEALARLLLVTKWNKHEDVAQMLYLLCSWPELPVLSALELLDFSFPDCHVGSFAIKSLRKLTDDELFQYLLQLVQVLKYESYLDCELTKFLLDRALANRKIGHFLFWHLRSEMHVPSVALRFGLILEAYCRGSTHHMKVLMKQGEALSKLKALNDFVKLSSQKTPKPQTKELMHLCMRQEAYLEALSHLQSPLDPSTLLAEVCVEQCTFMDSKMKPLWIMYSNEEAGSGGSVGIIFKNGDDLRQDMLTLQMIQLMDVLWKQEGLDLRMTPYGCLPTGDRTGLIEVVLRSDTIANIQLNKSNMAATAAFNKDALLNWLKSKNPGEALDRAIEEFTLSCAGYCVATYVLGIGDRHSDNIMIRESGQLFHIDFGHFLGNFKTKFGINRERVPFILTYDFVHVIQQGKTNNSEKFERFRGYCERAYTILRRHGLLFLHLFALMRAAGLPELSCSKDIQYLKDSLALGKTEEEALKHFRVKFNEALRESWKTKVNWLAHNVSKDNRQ
In short: (§1)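 Compounds were profiled by KINOMEscan to obtain kinase binding affinities.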

[3] = molecular target: T3, kinase enzymes (Homo sapiens, UniProt P42336); experiment: Enzyme binding assay (KINOMEscan, DiscoveRx), further kinases of Table A; conditions: PIK3Cα_h
T3 construct: purchased DiscoveRx Corporation, San Diego (contract service, KINOMEscan)
In short: as §1

[4] = molecular target: T4, kinase enzymes (Homo sapiens, UniProt P42345); experiment: as above; conditions: MTOR_h
T4 construct: purchased DiscoveRx Corporation, San Diego (contract service, KINOMEscan)
In short: as §1

[5] = molecular target: T5, kinase enzymes (Homo sapiens, UniProt P48736); experiment: as above; conditions: PIK3Cγ_h
T5 construct: purchased DiscoveRx Corporation, San Diego (contract service, KINOMEscan)
In short: as §1

[6] = system: Akt phosphorylated at Ser473 in PC-3 cells; experiment: Cellular assay: phosphorylation of Akt at Ser473 in PC-3 cells (MSD ELISA); assay type: cell-based; conditions: PC-3 cells, 60 min compound incubation, MSD ELISA, read-out: IC50 pAkt_S473
In short: (§2)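 Phospho-Akt in whole-cell lysates is quantified by electrochemiluminescent immunoassay using phospho-site capture and total-Akt detection antibodies.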

[7] = system: Akt phosphorylated at Thr308 in PC-3 cells; experiment: Cellular assay: phosphorylation of Akt at Thr308 in PC-3 cells (MSD ELISA); assay type: cell-based; conditions: PC-3 cells, 60 min compound incubation, MSD ELISA, read-out: IC50 pAkt_Thr308
In short: as §2

T5 sequence (P48736 whole entry): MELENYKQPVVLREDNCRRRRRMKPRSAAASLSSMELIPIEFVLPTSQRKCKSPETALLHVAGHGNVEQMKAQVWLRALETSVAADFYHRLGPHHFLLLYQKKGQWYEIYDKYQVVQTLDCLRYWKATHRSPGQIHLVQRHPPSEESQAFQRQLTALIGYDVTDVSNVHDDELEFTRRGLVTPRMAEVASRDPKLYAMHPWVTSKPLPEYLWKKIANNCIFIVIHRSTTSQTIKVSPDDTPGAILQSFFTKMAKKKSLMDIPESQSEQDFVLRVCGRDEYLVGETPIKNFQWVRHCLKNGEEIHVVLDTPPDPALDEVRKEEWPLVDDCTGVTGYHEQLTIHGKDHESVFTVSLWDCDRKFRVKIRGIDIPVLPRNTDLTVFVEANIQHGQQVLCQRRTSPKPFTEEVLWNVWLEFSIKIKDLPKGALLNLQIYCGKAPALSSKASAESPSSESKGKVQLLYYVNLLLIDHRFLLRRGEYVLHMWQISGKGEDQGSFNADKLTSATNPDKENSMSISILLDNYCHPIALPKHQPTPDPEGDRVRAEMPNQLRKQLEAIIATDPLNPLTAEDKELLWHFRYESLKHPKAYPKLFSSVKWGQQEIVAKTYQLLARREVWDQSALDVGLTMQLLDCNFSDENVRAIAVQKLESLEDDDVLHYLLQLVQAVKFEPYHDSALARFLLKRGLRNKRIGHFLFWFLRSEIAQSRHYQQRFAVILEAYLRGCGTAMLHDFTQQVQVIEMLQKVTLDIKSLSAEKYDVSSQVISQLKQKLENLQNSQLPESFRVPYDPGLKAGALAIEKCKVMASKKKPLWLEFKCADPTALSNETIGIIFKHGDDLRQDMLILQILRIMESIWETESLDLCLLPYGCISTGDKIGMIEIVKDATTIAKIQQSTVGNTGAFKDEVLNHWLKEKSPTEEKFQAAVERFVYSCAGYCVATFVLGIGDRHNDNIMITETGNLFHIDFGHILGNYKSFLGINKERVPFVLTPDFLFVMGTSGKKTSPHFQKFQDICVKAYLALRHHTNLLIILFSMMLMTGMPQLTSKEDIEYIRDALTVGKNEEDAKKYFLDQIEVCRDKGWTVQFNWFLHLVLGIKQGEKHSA
T3 sequence (P42336 whole entry): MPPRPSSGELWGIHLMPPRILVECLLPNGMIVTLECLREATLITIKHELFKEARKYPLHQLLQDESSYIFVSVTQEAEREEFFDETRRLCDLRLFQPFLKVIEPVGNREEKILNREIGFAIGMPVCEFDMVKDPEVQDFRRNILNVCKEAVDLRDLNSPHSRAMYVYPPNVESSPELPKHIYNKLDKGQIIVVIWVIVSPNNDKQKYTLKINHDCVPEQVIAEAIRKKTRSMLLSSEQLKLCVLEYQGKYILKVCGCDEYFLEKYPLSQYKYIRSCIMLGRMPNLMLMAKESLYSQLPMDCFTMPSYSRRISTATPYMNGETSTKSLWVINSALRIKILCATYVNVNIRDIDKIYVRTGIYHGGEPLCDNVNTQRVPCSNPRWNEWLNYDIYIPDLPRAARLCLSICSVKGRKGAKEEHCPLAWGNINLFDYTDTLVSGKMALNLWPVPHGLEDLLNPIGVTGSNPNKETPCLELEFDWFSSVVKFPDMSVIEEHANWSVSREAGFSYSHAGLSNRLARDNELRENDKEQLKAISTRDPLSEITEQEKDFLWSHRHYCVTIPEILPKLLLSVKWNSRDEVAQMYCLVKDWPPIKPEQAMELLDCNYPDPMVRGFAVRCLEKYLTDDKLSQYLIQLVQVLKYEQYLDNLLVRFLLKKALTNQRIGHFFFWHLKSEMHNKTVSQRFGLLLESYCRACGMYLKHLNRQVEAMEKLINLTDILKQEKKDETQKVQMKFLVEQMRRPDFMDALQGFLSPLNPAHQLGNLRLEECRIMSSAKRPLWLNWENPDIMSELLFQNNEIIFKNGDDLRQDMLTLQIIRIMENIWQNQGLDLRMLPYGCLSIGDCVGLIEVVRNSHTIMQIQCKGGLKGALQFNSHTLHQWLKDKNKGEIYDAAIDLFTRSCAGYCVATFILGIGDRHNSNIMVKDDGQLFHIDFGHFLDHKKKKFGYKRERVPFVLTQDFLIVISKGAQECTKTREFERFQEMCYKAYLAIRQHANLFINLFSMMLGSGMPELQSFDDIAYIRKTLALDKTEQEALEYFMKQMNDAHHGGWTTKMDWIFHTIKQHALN
T1 sequence (P42338 whole entry): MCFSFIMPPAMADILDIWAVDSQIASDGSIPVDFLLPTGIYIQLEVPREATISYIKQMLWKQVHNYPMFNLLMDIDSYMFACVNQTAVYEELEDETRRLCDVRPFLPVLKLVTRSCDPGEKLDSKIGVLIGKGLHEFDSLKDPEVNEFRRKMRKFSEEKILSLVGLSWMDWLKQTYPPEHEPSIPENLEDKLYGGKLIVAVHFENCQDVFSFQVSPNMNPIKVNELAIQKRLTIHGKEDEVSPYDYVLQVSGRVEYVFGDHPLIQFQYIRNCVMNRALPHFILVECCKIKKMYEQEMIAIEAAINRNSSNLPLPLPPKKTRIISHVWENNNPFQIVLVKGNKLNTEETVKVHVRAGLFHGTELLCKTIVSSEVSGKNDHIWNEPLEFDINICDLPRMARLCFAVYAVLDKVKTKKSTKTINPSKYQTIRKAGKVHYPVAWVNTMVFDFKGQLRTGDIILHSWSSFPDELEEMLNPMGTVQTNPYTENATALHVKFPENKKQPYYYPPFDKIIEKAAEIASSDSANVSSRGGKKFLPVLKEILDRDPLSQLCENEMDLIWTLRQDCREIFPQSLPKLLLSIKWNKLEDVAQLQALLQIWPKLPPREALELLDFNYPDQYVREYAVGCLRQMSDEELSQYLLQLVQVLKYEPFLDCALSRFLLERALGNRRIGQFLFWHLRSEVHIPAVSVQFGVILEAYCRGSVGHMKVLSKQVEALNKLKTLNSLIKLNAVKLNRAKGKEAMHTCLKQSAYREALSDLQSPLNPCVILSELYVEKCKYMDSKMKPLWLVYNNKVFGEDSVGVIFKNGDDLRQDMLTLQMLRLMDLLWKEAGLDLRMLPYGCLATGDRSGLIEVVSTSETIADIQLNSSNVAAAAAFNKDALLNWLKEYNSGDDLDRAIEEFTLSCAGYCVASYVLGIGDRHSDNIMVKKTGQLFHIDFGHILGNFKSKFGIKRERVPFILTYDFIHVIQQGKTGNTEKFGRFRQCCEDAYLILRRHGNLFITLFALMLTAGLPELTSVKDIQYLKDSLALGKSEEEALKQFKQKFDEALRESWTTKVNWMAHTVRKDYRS

| SMILES | Kd [1] | Kd [2] | Kd [3] | Kd [4] | Kd [5] | IC50 [6] | IC50 [7] | melting point | IC50 ([6]; Homo sapiens, PC-3, 1 h) | IC50 ([7]; Homo sapiens, PC-3, 1 h) |
| --- | --- | --- | --- | --- | --- | --- | --- | --- | --- | --- |
| Cc1cc(C2CCCN2c2cc(F)cc(F)c2)c2nc(N3CCOCC3)cnc2c1 (single isomer, unassigned) [Compound 107] | 363 nM | 23400 nM | > 30200 nM | > 30200 nM | > 30200 nM | > 513 nM | > 513 nM | 80 to 90 °C | – | – |
| CC(Nc1cc(F)cc(F)c1)c1cc(CNCC(F)(F)F)cc2ncc(N3CCOCC3)nc12 (single isomer, unassigned) [Compound 162] | 9 nM | 1230 nM | 3980 nM | > 30200 nM | 24500 nM | 209 nM | 91 nM | 80 °C | – | – |
| O=C(c1cc(C2CCCN2c2cc(F)cc(F)c2)c2nc(N3CCOCC3)cnc2c1)N1CCC1 (single isomer, unassigned) [Compound 33] | 1 nM | 47 nM | 58 nM | > 30200 nM | 389 nM | 3 nM | 4 nM | 280 °C | – | – |
| CC(Nc1cc(F)cc(F)c1)c1cc(C(=O)NS(N)(=O)=O)cc2ncc(N3CCOCC3)nc12 (single isomer, unassigned) [Compound 243a] | 0.5 nM | 69 nM | 39 nM | 1480 nM | 100 nM | – | – | 160 °C | > 513 nM | > 513 nM |
| Cc1c(CNc2cc(C(=O)N(C)C)cc3ncc(N4CCOCC4)nc23)cccc1C(F)(F)F [Compound 399] | 45 nM | 5250 nM | 2820 nM | > 30200 nM | 9330 nM | – | – | 202 °C | > 513 nM | > 513 nM |
| CN(C)C(=O)c1cc(N2CCCC2c2cc(F)cc(F)c2)c2nc(N3CCOCC3)cnc2c1 (centres unmarked) [Compound 395] | 33 nM | 2240 nM | 3470 nM | 18200 nM | 14100 nM | – | – | 80 °C | > 513 nM | > 513 nM |
| O=C(c1cc(C2CCCN2c2cc(F)cc(F)c2)c2nc(N3CCOCC3)cnc2c1)N1CC(O)C1 (centres unmarked) [Compound 65] | 1 nM | 17 nM | 38 nM | 10700 nM | 200 nM | – | – | 80 °C | 6 nM | 2 nM |
| CC(Nc1ccc(F)c(F)c1)c1cc(C(=O)NCCN(C)C)cc2ncc(N3CCOCC3)nc12 (single isomer, unassigned) [Compound 281a] | 0.3 nM | 72 nM | 1510 nM | 23400 nM | 4070 nM | 5 nM | 3 nM | 102 °C | – | – |
| CNCCN(C)C(=O)c1cc(C(C)Nc2cc(F)cc(F)c2)c2nc(N3CCOCC3)cnc2c1 (single isomer, unassigned) [Compound 137] | 0.1 nM | 9 nM | 138 nM | > 30200 nM | 501 nM | 1 nM | 1 nM | 80 °C | – | – |
| CC(Nc1cc(F)cc(F)c1)c1cc(C(=O)N2CCOCC2)cc2ncc(N3CCOCC3)nc12 (single isomer, unassigned) [Compound 8] | 1 nM | 109 nM | 396 nM | 20900 nM | 3860 nM | 25 nM | 20 nM | 100 °C | – | – |
| CC(Nc1cc(F)cc(F)c1)c1cc(Br)cc2ncc(N3CCOCC3)nc12 (centres unmarked) [Compound 167] | 26 nM | 7760 nM | 17400 nM | > 30200 nM | 12900 nM | – | – | 80 °C | > 513 nM | ~427 nM |
| CC(Nc1cc(F)cc(F)c1)c1cc(CN2CCn3nccc3C2)cc2ncc(N3CCOCC3)nc12 (single isomer, unassigned) [Compound 210] | 12 nM | 1020 nM | 3160 nM | > 30200 nM | > 30200 nM | 245 nM | 151 nM | 80 °C | – | – |
| CN(CCO)C(=O)c1cc(C2CCCN2c2cc(F)cc(F)c2)c2nc(N3CCOCC3)cnc2c1 (centres unmarked) [Compound 50] | 0.2 nM | 8 nM | 11 nM | 8910 nM | 87 nM | – | – | 80 °C | 1 nM | 1 nM |
| CCN1CCN(C(=O)c2cc(C(C)Nc3cc(F)cc(F)c3)c3nc(N4CCOCC4)cnc3c2)CC1 (centres unmarked) [Compound 143] | 2 nM | 389 nM | 2820 nM | > 30200 nM | 9550 nM | – | – | 80 °C | 102 nM | 30 nM |
| CNCCNC(=O)c1cc([C@@H](C)Oc2cccc(F)c2)c2nc(N3CCOCC3)cnc2c1 [Compound 122a] | 3 nM | 660 nM | 3700 nM | 14100 nM | 7970 nM | 12 nM | 9 nM | 116 °C | – | – |
| CC(Nc1ccc(F)c(F)c1)c1cc(C(=O)N2CC[C@@H](O)C2)cc2ncc(N3CCOCC3)nc12 (single isomer, unassigned) [Compound 300a] | 2 nM | 191 nM | 1480 nM | > 30200 nM | 5490 nM | – | – | 140 °C | 29 nM | 19 nM |

— patent US10526316B2, “Quinoxaline and pyridopyrazine derivatives as PI3Kβ inhibitors” (Janssen Pharmaceutica NV, priority 2015, dated 2020)
